Measured values taken from patent US20250171461A1, “STIMULATOR OF INTERFERON GENES (STING) MODULATORS, AND COMPOSITIONS AND METHODS THEREOF” (Geode Therapeutics Inc., priority 2022, published 2025).

The molecules below were run against T1, human HAQ STING isoform (hSTING HAQ) (Homo sapiens, UniProt Q86WV6, G230A/H232R/R293Q/R71H) (assay: IFN-β mRNA level in THP1 cells (qPCR, STING agonist cellular activity)). Settings: compound at 3.6 μM, 2 hrs, IFNβ expression normalized against GAPDH by the 2^-ΔΔCT method, DMSO = 1.0.
T1 construct: THP1 cells express the naturally occurring human HAQ STING isoform (hSTING HAQ); host or cells: THP1
T1 sequence (Q86WV6 whole entry R71H/G230A/H232R/R293Q, canonical isoform): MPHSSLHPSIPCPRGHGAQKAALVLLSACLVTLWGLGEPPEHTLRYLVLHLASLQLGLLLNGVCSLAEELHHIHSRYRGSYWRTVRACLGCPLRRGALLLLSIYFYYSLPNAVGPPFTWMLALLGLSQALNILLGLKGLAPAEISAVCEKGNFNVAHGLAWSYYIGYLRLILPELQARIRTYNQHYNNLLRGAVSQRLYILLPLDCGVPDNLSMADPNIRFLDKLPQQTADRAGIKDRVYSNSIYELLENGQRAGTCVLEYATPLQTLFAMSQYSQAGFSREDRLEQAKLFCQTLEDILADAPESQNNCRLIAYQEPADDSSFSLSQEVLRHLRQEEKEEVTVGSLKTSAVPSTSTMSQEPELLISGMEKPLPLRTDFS
Format: cell-based
Description: Cellular activity of STING agonists was determined by mRNA levels of IFN-β in THP1 (Otwo Biotech HTX1621) cell line. THP1 cells express the naturally occurring human HAQ STING isoform (hSTING HAQ), which responses to the activation of STING agonists.
THP1 cells were seeded into Falcon 12-well cell Culture Plate (Corning #353043) at 9×10^5 cells per well, in 1 ml complete culture medium (RPMI-1640, GIBCO #C1187500BT) containing 10% heat inactivated FBS (GIBCO #10099141C), 1% Pen-Strep (HyClone SV30010) and incubated at 37° ΔC, 5% CO2 overnight. On day 2, compound (final concentration at 3.6 μM) or DMSO (0.1%, Sigma Aldrich #8418) was added to THP1 cells and further incubated for 2 hrs min at 37° ΔC, 5% CO2. Cells were then collected for RNA extraction.
Total RNA was extracted with TRIzol reagent (Invitrogen #15596026) and […] was used to synthesize first-strand cDNA with Maxima First Strand cDNA Synthesis Kit (TAKARA #RR036A). Quantitative PCR was performed with Maxima SYBR Green qPCR Master Mix (ABI #4367659, USA). The primer sequences used were as follows: GAPDH (5′-[…]-3′, 5′-[…]-3′). INFP3 (5′-[…]-3′,5′-[…]-3′) Real-time PCR was performed on QuantStudio™ 5 Real-Time PCR System (Thermo Fisher). Relative expression levels of IFNβ gene were normalized against the level of GAPDH expression by the 2^−ΔΔCT method. Each PCR reaction was performed in triplicates.

Row | SMILES | Relative mRNA INFβ/GAPDH THP 1
1 | CNC1CCCN(c2c(F)cc3c(=O)c(CN(Cc4ccnc(OC)c4)[C@H]4CCCN(c5ccc(N)nc5)C4)cn4c3c2OCC4C)C1.Cl (stereo partly drawn) [Compound 42, 6-((((S)-1-(6-aminopyridin-3-yl)piperidin-3-yl)((2-methoxypyridin-4-yl)methyl)amino)methyl)-9-fluoro-3-methyl-10-(3-(methylamino)piperidin-1-yl)-2H-[1,4]oxazino[2,3,4-ij]quinolin-7(3H)-one Hydrochloride] | 12.1
2 | COc1cc(CN(Cc2cn3c4c(c(N(C)C5CCCNC5)c(F)cc4c2=O)OCC3C)[C@H]2CCCN(c3ccc(N)nc3)C2)ccn1.Cl (stereo partly drawn) [Compound 43, 6-((((S)-1-(6-aminopyridin-3-yl)piperidin-3-yl)((2-methoxypyridin-4-yl)methyl)amino)methyl)-9-fluoro-3-methyl-10-(methyl(piperidin-3-yl)amino)-2H-[1,4]oxazino[2,3,4-ij]quinolin-7(3H)-one Hydrochloride] | 1.2
3 | COc1cc(CN(Cc2cn3c4c(c(N5CCC6(CC5)CC(O)CO6)c(F)cc4c2=O)OCC3C)[C@H]2CCCN(c3ccc(N)nc3)C2)ccn1 (stereo partly drawn) [Compound 44, 6-((((S)-1-(6-aminopyridin-3-yl)piperidin-3-yl)((2-methoxypyridin-4-yl)methyl)amino)methyl)-9-fluoro-10-(3-hydroxy-1-oxa-8-azaspiro[4.5]decan-8-yl)-3-methyl-2H-[1,4]oxazino[2,3,4-ij]quinolin-7(3H)-one] | 642.4
4 | COc1cc(CN(Cc2cn3c4c(c(N5CC6(CCN(C)CC6)C5)c(F)cc4c2=O)OCC3C)[C@H]2CCCN(c3ccc(N)nc3)C2)ccn1 (stereo partly drawn) [Compound 45, 6-((((S)-1-(6-aminopyridin-3-yl)piperidin-3-yl)((2-methoxypyridin-4-yl)methyl)amino)methyl)-9-fluoro-3-methyl-10-(7-methyl-2,7-diazaspiro[3.5]nonan-2-yl)-2H-[1,4]oxazino[2,3,4-ij]quinolin-7(3H)-one] | 595.1
5 | COc1cc(CN(Cc2cn3c4c(c(N5CC6CC(F)(F)CC6C5)c(F)cc4c2=O)OCC3C)[C@H]2CCCN(c3ccc(N)nc3)C2)ccn1 (stereo partly drawn) [Compound 46, 6-((((S)-1-(6-aminopyridin-3-yl)piperidin-3-yl)((2-methoxypyridin-4-yl)methyl)amino)methyl)-10-(5,5-difluorohexahydrocyclopenta[c]pyrrol-2(1H)-yl)-9-fluoro-3-methyl-2H-[1,4]oxazino[2,3,4-ij]quinolin-7(3H)-one] | 691.4
6 | COc1cc(CN(Cc2cn3c4c(c(F)c(F)cc4c2=O)OCCC3)[C@H]2CCCN(c3ccc(N)nc3)C2)ccn1 [Compound 47, (S)-7-(((1-(6-aminopyridin-3-yl)piperidin-3-yl)((2-methoxypyridin-4-yl)methyl)amino)methyl)-10,11-difluoro-3,4-dihydro-[1,4]oxazepino[2,3,4-ij]quinolin-8(2H)-one] | 710.4
7 | COc1cc(CN(Cc2cn3c4c(c(F)c(F)cc4c2=O)OCC3C)[C@H]2CCCN(c3cnc4[nH]ncc4c3)C2)ccn1 (stereo partly drawn) [Compound 54, 6-((((S)-1-(1H-pyrazolo[3,4-b]pyridin-5-yl)piperidin-3-yl)((2-methoxypyridin-4-yl)methyl)amino)methyl)-9,10-difluoro-3-methyl-2H-[1,4]oxazino[2,3,4-ij]quinolin-7(3H)-one] | 3.9
8 | COc1cc(CN(Cc2cn3c4c(c(Br)c(F)cc4c2=O)OCC3C)[C@H]2CCCN(c3ccc(N)nc3)C2)ccn1 (stereo partly drawn) [Compound 55, 6-((((S)-1-(6-aminopyridin-3-yl)piperidin-3-yl)((2-methoxypyridin-4-yl)methyl)amino)methyl)-10-bromo-9-fluoro-3-methyl-2H-[1,4]oxazino[2,3,4-ij]quinolin-7(3H)-one] | 655.0
9 | COc1cc(CN(Cc2cn3c4c(c(-c5ccncc5)c(F)cc4c2=O)OCC3C)[C@H]2CCCN(c3ccc(N)nc3)C2)ccn1 (stereo partly drawn) [Compound 56, 6-((((S)-1-(6-aminopyridin-3-yl)piperidin-3-yl)((2-methoxypyridin-4-yl)methyl)amino)methyl)-9-fluoro-3-methyl-10-(pyridin-4-yl)-2H-[1,4]oxazino[2,3,4-ij]quinolin-7(3H)-one] | 366.2
10 | COc1cc(CN(Cc2cn3c4c(c(C5=CCSCC5)c(F)cc4c2=O)OCC3C)[C@H]2CCCN(c3ccc(N)nc3)C2)ccn1 (stereo partly drawn) [Compound 58, 6-((((S)-1-(6-aminopyridin-3-yl)piperidin-3-yl)((2-methoxypyridin-4-yl)methyl)amino)methyl)-10-(3,6-dihydro-2H-thiopyran-4-yl)-9-fluoro-3-methyl-2H-[1,4]oxazino[2,3,4-ij]quinolin-7(3H)-one] | 688.4
11 | COc1cc(CN(Cc2cn3c4c(c(C5=CCN(C6CC6)CC5)c(F)cc4c2=O)OCC3C)[C@H]2CCCN(c3ccc(N)nc3)C2)ccn1 (stereo partly drawn) [Compound 59, 6-((((S)-1-(6-aminopyridin-3-yl)piperidin-3-yl)((2-methoxypyridin-4-yl)methyl)amino)methyl)-10-(1-cyclopropyl-1,2,3,6-tetrahydropyridin-4-yl)-9-fluoro-3-methyl-2H-[1,4]oxazino[2,3,4-ij]quinolin-7(3H)-one] | 316.7

The remaining lines, values ahead:

Row | Relative mRNA INFβ/GAPDH THP 1 | SMILES
12 | 352.8 | COc1cc(CN(Cc2cn3c4c(c(N5CCNC(C)C5)c(F)cc4c2=O)OCC3C)[C@H]2CCCN(c3ccc(N)nc3)C2)ccn1 (stereo partly drawn) [Compound 40, 6-((((S)-1-(6-aminopyridin-3-yl)piperidin-3-yl)((2-methoxypyridin-4-yl)methyl)amino)methyl)-9-fluoro-3-methyl-10-(3-methylpiperazin-1-yl)-2H-[1,4]oxazino[2,3,4-ij]quinolin-7(3H)-one]
13 | 1.2 | COc1cc(CN(Cc2cn3c4c(c(N5CCNCC5C)c(F)cc4c2=O)OCC3C)[C@H]2CCCN(c3ccc(N)nc3)C2)ccn1 (stereo partly drawn) [Compound 41, 6-((((S)-1-(6-aminopyridin-3-yl)piperidin-3-yl)((2-methoxypyridin-4-yl)methyl)amino)methyl)-9-fluoro-3-methyl-10-(2-methylpiperazin-1-yl)-2H-[1,4]oxazino[2,3,4-ij]quinolin-7(3H)-one]
14 | 1202.3 | COc1cc(CN(Cc2cn3c4c(c(F)c(F)cc4c2=O)OCC3(C)C)[C@H]2CCCN(c3ccc(N)nc3)C2)ccn1 [Compound 48, (S)-6-(((1-(6-aminopyridin-3-yl)piperidin-3-yl)((2-methoxypyridin-4-yl)methyl)amino)methyl)-9,10-difluoro-3,3-dimethyl-2H-[1,4]oxazino[2,3,4-ij]quinolin-7(3H)-one]
15 | 5276.2 | COc1cc(CN(Cc2cn3c4c(c(F)c(F)cc4c2=O)OC2(CCC2)C3)[C@H]2CCCN(c3ccc(N)nc3)C2)ccn1 [Compound 49, (S)-6-(((1-(6-aminopyridin-3-yl)piperidin-3-yl)((2-methoxypyridin-4-yl)methyl)amino)methyl)-9,10-difluorospiro[[1,4]oxazino[2,3,4-ij]quinoline-2,1′-cyclobutan]-7(3H)-one]
16 | 6723.5 | COc1cc(CN(Cc2cn3c4c(c(F)c(F)cc4c2=O)OC(C)(C)C3)[C@H]2CCCN(c3ccc(N)nc3)C2)ccn1 [Compound 50, (S)-6-(((1-(6-aminopyridin-3-yl)piperidin-3-yl)((2-methoxypyridin-4-yl)methyl)amino)methyl)-9,10-difluoro-2,2-dimethyl-2H-[1,4]oxazino[2,3,4-ij]quinolin-7(3H)-one]
17 | 7257.8 | COc1cc(CN(Cc2cn3c4c(c(F)c(F)cc4c2=O)OC(C)C3)[C@H]2CCCN(c3ccc(N)nc3)C2)ccn1 (stereo partly drawn) [Compound 51, 6-((((S)-1-(6-aminopyridin-3-yl)piperidin-3-yl)((2-methoxypyridin-4-yl)methyl)amino)methyl)-9,10-difluoro-2-methyl-2H-[1,4]oxazino[2,3,4-ij]quinolin-7(3H)-one]
18 | 178.2 | COc1cc(CN(Cc2cn3c4c(cc(F)c(F)c4c2=O)OCC3C)[C@H]2CCCN(c3ccc(N)nc3)C2)ccn1 (stereo partly drawn) [Compound 52, 6-((((S)-1-(6-aminopyridin-3-yl)piperidin-3-yl)((2-methoxypyridin-4-yl)methyl)amino)methyl)-8,9-difluoro-3-methyl-2H-[1,4]oxazino[2,3,4-ij]quinolin-7(3H)-one]
19 | 580.9 | COc1cc(CN(Cc2cn3c4c(c(C)c(F)cc4c2=O)OCC3C)[C@H]2CCCN(c3ccc(N)nc3)C2)ccn1 (stereo partly drawn) [Compound 57, 6-((((S)-1-(6-aminopyridin-3-yl)piperidin-3-yl)((2-methoxypyridin-4-yl)methyl)amino)methyl)-9-fluoro-3,10-dimethyl-2H-[1,4]oxazino[2,3,4-ij]quinolin-7(3H)-one]
